Test system: RAW264.7 cells
Assay: NO production inhibition test (LPS, Griess Method)
Type: cell-based, mouse
Method: A 200 microliter each of the continuously-cultivated RAW264.7 cells (10^6 cells/mL) should be seeded into 48-well plate. After 24 hours, replace the culture medium with a serum-free culture medium. Then, add the LPS (final concentration: 10 microgram/mL) and samples (Examples 1 & 2), and then cultivate for 24 hours. Collect the supernatant (100 microliter) and determine the amount of NO by the Griess Method.

[1] = 1 μg/mL, LPS 10 microgram/mL, 24 hours, average ± SD

SMILES	NO in supernatant [1]	NO in supernatant (3 μg/mL)	NO in supernatant (10 μg/mL)	NO in supernatant (30 μg/mL)	NO in supernatant (100 μg/mL)	Inhibition ratio (NO production) (10 μg/mL)	Inhibition ratio (NO production) (30 μg/mL)	Inhibition ratio (NO production) (100 μg/mL)	Effect on NO production among the ingredients (compared with the other components)	Inhibition ratio (NO production) (1 μg/mL)	Inhibition ratio (NO production) (3 μg/mL)
CCC[C@H](O)CC(=O)CCc1ccc(O)c(OC)c1 [Example 4-gingerol, 4-gingerol]	4.98 ± 0.22 µM	5.10 ± 0.24 µM	4.98 ± 0.22 µM	5.03 ± 0.45 µM	4.98 ± 0.26 µM	–	–	–	–	–	–
CCCCC/C=C/C(=O)CCc1ccc(O)c(OC)c1 [Example 6-shogaol, 6-shogaol]	3.81 ± 0.29 µM	3.60 ± 0.29 µM	3.21 ± 0.31 µM	2.79 ± 0.09 µM	1.22 ± 0.04 µM	(13.6) %	(29.8) %	(90.7) %	comparatively strong effect	–	–
CCCCCCC[C@H](O)CC(=O)CCc1ccc(O)c(OC)c1 [Example 8-gingerol, 8-gingerol]	4.17 ± 0.27 µM	4.06 ± 0.24 µM	3.86 ± 0.32 µM	3.59 ± 0.21 µM	3.20 ± 0.17 µM	(13.3) %	(20.7) %	(31.5) %	–	(4.7) %	(7.7) %
CCCCCCCCC[C@H](O)CC(=O)CCc1ccc(O)c(OC)c1 [Example 10-gingerol, 10-gingerol]	4.44 ± 0.27 µM	4.32 ± 0.16 µM	4.33 ± 0.50 µM	4.28 ± 0.72 µM	3.55 ± 0.08 µM	–	–	(21.1) %	–	–	–
CCCCCCCCC/C=C/C(=O)CCc1ccc(O)c(OC)c1 [Example 10-shogaol, 10-shogaol]	2.78 ± 0.10 µM	2.88 ± 0.11 µM	2.76 ± 0.10 µM	2.68 ± 0.70 µM	2.62 ± 0.71 µM	(24.4) %	(28.3) %	(31.2) %	–	(23.4) %	(18.5) %

Reference: patent US8017162B2, “Anti-inflammatory agent” (Oryza Oil & Fat Chemical Co., Ltd., priority 2005, dated 2011)
